Assays:
beta-blocking activity = test system: beta-blocking activity; set-up: method as in Regardh et al., 1974; conditions: both active metabolites together; ref Regardh et al., 1974; cited from earlier work
[1] = cited from earlier work
[2] = target: recombinant human CYP3A4 supersomes (Homo sapiens, UniProt P08684)
Description: (§1) Microsomes and supersomes were stored at −80°C until used.
(§2) For inhibition studies, the reaction mixture was pre-incubated with the specific inhibitors (concentrations indicated in the figures) for 10 min prior to the addition of test compounds and NADPH. […] Following the incubation in the absence (control) or presence of inhibitors, the reactions were terminated at selected time-points by transferring 50 μL of the incubation mixture into a matrix autosampler vial, to which a threefold volume of ice-cold methanol (containing the internal standards) was added. […] The formation rate (pmol/min/pmol P450) in the absence and the presence of the inhibitors was calculated from the linear parts of the concentration-time curves and expressed as an absolute value or as a percentage relative to the control values.
(§3) Chromatographic separation was performed on a Shimadzu HPLC system (Shimadzu AG, Reinach, Switzerland), coupled to a triple quadrupole tandem mass spectrometer (API4000 or API5500, AB/MDS Sciex, Concord, Canada), operating in positive electrospray ionization mode.
(§4) The CYP activities were determined as the respective metabolite formation rates corresponding to the slope in the metabolite concentration versus time graphs.

CYP3A4 = assay: Metoprolol metabolism by human liver microsomes with ketoconazole; assay type: in vitro ADME; conditions: pooled human liver microsomes, pH 7.4, probe metoprolol 25 μM
Description: as §1, §2, §3, §4

[3] = Metoprolol metabolism by human liver microsomes without inhibitor; assay type: in vitro ADME; conditions: inhibition studies using human liver microsomes; mean ± 95%CI
Description: as §1, §2, §3, §4

CYP2D6 [4] = target: T1, CYP2D6 (Homo sapiens, UniProt P10635); conditions: ref Johnson and Burlew, 1996; cited from earlier work
[5] = In vivo assessment of CYP induction (Basel phenotyping cocktail before and after rifampicin); conditions: 15 healthy volunteers, rifampicin 600 mg per day for 7 days
Description: We used the ratio between the induced and the basal state of the Cl/F of midazolam as a marker of CYP3A4 induction.
Experiments were carried out 5 times unless stated otherwise. Means were compared with the two-tailed Student’s t-test using GraphPad Prism 6.0 (GraphPad Software, San Diego, CA, United States). Data are presented as mean ± SD unless stated otherwise. Induction levels above twofold with statistically significant differences (p < 0.05) were considered relevant.

CYP2D6 [6] = target: T1, CYP2D6; conditions: primary human hepatocytes; without reaching statistical significance; ref Madan et al., 2003; cited from earlier work
CYP2D6 [7] = target: T1, CYP2D6; assay: Metoprolol metabolism by human liver microsomes with quinidine
Description: as §1, §2, §3, §4

[8] = test system: primary human hepatocytes
Description: Experimental control culture wells were treated with solvent [DMSO, 0.1% (v/v)] alone. […] The bottoms of the wells were scraped using a pipette tip, after which the contents were transferred to an autosampler vial.
as §3, §4
For induction experiments, metabolite formation rates were determined as described above, and the fold change versus the basal conditions was calculated as the ratio of the metabolite formation rate in wells exposed to an inducer versus formation rates in control wells.

CYP2D6 mRNA [9] = assay: rt-PCR quantification of CYP2D6 mRNA in HepaRG cells after rifampicin; assay type: cell-based, human
Description: HepaRG cells were purchased from Biopredic International (Rennes, France) as undifferentiated cryopreserved cells with the associated medium. Freshly split HepaRG cells were seeded at 9000 cells/well in 96-well plates (or 0.05 × 10^6 cells/well in 24-well plates) and treated over the course of the next 4 weeks as previously described ([Aninat et al., 2006]).
(§5) A total of 350 μL of RLT buffer (Qiagen, Hombrechtikon, Switzerland) was used to lyse the respective liver cell models, after which the lysate was transferred to Qiashredder columns and centrifuged for 2 min at 13,000 rpm. From the eluate, total RNA was extracted and purified according to the manufacturer’s instructions (Qiagen, RNeasy mini extraction kit). The concentration of the extracted RNA was measured spectrophotometrically at 260 nm on a NanoDrop 2000 (Thermo Fisher Scientific, Wohlen, Switzerland). cDNA was reverse transcribed from the isolated RNA using the Qiagen omniscript system. For quantitative rt-PCR, 10 ng cDNA was used. […] Quantification of mRNA expression levels was performed using the comparative-threshold cycle method ([Livak and Schmittgen, 2001]).

CYP2D6 mRNA [10] = assay: rt-PCR quantification of CYP2D6 mRNA in primary human hepatocytes after rifampicin; assay type: cell-based; conditions: primary human hepatocytes Lot #Hu8119; rifampicin 20 μM 48 h
Description: Primary cryopreserved human hepatocytes (Life Technologies, Lot #Hu8119 and Lot #Hu8124) were plated at 0.05 × 10^6 cells/well in collagen type-1 precoated 96-well plates (or 0.25 × 10^6 cells/well in 24-well plates) in William’s E medium supplemented with 10% FCS (v/v), 1% L-glutamine 200 mM (v/v), 1% Pen Strep (v/v), 0.1% dexamethasone 100 μM (v/v), and 0.1% insulin 100 μM (v/v), and then incubated at 37°C in the presence of 5% CO2 and 95% humid air.
as §5

CYP2D6 [11] = target: T1, CYP2D6; set-up: Pooled human liver microsomes (HLM; Lot #38289); tissue Corning Life science Lot #38289; host or cells: pooled human liver microsomes; method as in Glaeser et al., 2005; conditions: enterocytes of human subjects; 600 mg rifampicin for 10 days; without reaching statistical significance; ref Glaeser et al., 2005; cited from earlier work

T1 sequence (P10635 whole entry): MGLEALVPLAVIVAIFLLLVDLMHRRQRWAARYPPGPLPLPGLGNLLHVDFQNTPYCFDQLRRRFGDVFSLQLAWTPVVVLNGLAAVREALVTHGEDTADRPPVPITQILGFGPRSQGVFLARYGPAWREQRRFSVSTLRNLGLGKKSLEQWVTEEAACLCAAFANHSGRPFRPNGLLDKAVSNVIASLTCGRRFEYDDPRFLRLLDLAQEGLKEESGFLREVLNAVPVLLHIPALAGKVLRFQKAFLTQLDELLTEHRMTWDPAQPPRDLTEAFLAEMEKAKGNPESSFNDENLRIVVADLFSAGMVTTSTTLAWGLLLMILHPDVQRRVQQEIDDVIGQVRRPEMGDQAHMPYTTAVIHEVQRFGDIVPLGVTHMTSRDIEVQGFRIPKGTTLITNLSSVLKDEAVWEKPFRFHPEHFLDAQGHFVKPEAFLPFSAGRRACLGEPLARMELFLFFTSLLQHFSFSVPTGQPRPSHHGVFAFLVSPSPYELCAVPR
Chain of recombinant human CYP3A4 supersomes (P08684 whole entry): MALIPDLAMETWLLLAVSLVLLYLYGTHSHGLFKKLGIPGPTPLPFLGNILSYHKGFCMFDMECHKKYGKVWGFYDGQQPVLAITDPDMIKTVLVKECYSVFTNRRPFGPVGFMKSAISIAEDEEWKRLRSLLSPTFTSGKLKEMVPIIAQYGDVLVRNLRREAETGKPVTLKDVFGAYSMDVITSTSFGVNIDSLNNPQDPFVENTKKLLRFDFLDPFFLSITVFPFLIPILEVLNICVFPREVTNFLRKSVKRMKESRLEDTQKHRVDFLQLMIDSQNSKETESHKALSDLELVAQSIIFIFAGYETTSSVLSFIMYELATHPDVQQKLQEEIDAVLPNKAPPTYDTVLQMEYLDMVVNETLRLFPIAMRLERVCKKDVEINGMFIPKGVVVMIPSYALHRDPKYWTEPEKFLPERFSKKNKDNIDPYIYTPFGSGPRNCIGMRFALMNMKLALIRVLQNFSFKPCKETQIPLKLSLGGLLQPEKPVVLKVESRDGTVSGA

Structure (SMILES): CC(C)NCC(O)COc1ccc(CCO)cc1 (centres unmarked) [O-demethylmetoprolol]
- contribution to the total beta-blocking activity of metoprolol (beta-blocking activity): approximately 10%

Structure (SMILES): COCCc1ccc(OC[C@H](O)CNC(C)C)cc1 [R-metoprolol]
- clearance higher than that of S-metoprolol ([1]; human, in vivo): 40%

Structure (SMILES): COc1ccc2c(c1)[C@]13CCCC[C@@H]1[C@H](C2)N(C)CC3 [dextromethorphan]
- conversion to dextrorphan ([2]; rhCYP3A4 supersomes, check for CYP2D6 activity, data not shown): not quantifiable

Structure (SMILES): CC(=O)N1CCN(c2ccc(OCC3COC(Cn4ccnc4)(c4ccc(Cl)cc4Cl)O3)cc2)CC1 (centres unmarked) [ketoconazole]
- inhibition at 1 μM (CYP3A4): 9.9 to 17.5%

Structure (SMILES): COCCc1ccc(OCC(O)CNC(C)C)cc1 (centres unmarked) [metoprolol]
- contribution of CYP3A4, 2B6, and 2C9 together to N-dealkylation of metoprolol [3]: 7.6 ± 1.7%
- contribution of CYP3A4, 2B6, and 2C9 together to O-demethylation of metoprolol [3]: 19.0 ± 2.6%
- contribution of CYP3A4, 2B6, and 2C9 together to α-hydroxylation of metoprolol [3]: 4.0 ± 0.7%
- bioavailability ([1]; oral, ref Regardh and Johnsson, 1980): approximately 50%
- part of orally administered metoprolol metabolized by CYP2D6 (CYP2D6 [4]): Approximately 70%

Structure (SMILES): Cc1ncc2n1-c1ccc(Cl)cc1C(c1ccccc1F)=NC2 [midazolam]
- clearance of midazolam after rifampicin ([5]; 2 mg midazolam, all subjects): increase
- formation of 1′-OH-midazolam from midazolam by CYP3A4 overexpressing supersomes ([2]; recombinant enzyme): rapid

Structure (SMILES): CCC1(c2ccccc2)C(=O)NC(=O)NC1=O [phenobarbital]
- increase of the activity of dextromethorphan O-demethylation (CYP2D6 [6]): almost identical effect

Structure (SMILES): C=C[C@H]1C[N@@]2CC[C@H]1C[C@@H]2[C@@H](O)c1ccnc2ccc(OC)cc12 [quinidine]
- block of formation of the phenylacetate metabolite from O-demethylated metoprolol (CYP2D6 [7]; HLM, quinidine 1 μM): blocked completely
- activity at 1 μM (CYP2D6 [7]; human, pooled human liver microsomes, pH 7.4, probe metoprolol 25 μM): 8%

Structure (SMILES): CO[C@H]1/C=C/O[C@@]2(C)Oc3c(C)c(O)c4c(O)c(c(/C=N/N5CCN(C)CC5)c(O)c4c3C2=O)NC(=O)/C(C)=C\C=C\[C@H](C)[C@H](O)[C@@H](C)[C@@H](O)[C@@H](C)[C@H](OC(C)=O)[C@@H]1C [rifampicin]
- increase in O-demethylation of metoprolol ([8]; primary human hepatocytes Lot #Hu8124, rifampicin 20 μM 48 h): 1.4 factor
- increase in production of α-OH-metoprolol ([8]; primary human hepatocytes treated with rifampicin (Figure 3D, lot #Hu8124)): 75%
- induction of CYP2D6 mRNA (CYP2D6 mRNA [9]; HepaRG cells, rifampicin 20 μM for 48 h): not induced
- effect on CYP2D6 mRNA (CYP2D6 mRNA [9]; both cell models (HepaRG cells and primary human hepatocytes), 20 μM rifampicin): not affected
- CYP2D6 mRNA expression levels (CYP2D6 mRNA [10]): no increase
- increase of the activity of dextromethorphan O-demethylation (CYP2D6 [6]): 1.3 factor
- increase of CYP2D6 protein expression (CYP2D6 [11]): 1.6 factor

Structure (SMILES): COCC(O)c1ccc(OCC(O)CNC(C)C)cc1 (stereo not drawn) [α-OH-metoprolol]
- contribution to the total beta-blocking activity of metoprolol (beta-blocking activity): approximately 10%
- increase in α-OH-metoprolol formation / AUC after rifampicin ([5]; 12.5 mg metoprolol oral, statistically not significant): 9%

From PMC6066528 (Frontiers in Pharmacology, 2018)
